Series [1] relates to patients treated with atorvastatin. Conditions: cited from earlier work.
Series [2] concerns cisplatin-induced hearing loss in patients with head and neck cancer. Put plainly: Clinical hearing status (PTA of 1, 2 and 4 kHz) at follow-up after cisplatin therapy. It counts as in vivo, human.
Series [3] has the same test system. The text has this:
(§1) The primary outcome measure was the difference in incidence of a change in hearing between the baseline hearing test and the post-treatment hearing test, per ear, as defined by established ototoxicity grading scales. These scales report subjects who transition from normal hearing to hearing loss as well as those who transition from some hearing loss to more hearing loss. The criteria of two different grading scales was applied to the dataset (Table 4). The NCI CTCAEv5.0(34) classifies adverse changes in hearing based on auditory threshold shifts across a 1-8 KHz frequency range. TUNE ototoxicity grading criteria (Theunissen et al., 2014), which incorporate extended high frequency (EHF) data was also applied (see Table 5, FIG. 5).
Changes in hearing were primarily defined using CTCAEv5.0 criteria (Theunissen et al., 2014). However, cisplatin-induced ototoxicity is characterized initially as a high frequency (above 8 kHz) hearing loss that can spread to include lower frequencies (Brock et al., 1991). Therefore, the TUNE grading scale (Theunissen et al., 2014) was applied, which reports incidence and severity of hearing loss based on shifts in auditory thresholds across two frequency ranges: 1-4 kHz and 8-12.5 kHz (Table 4). The higher-frequency range of the TUNE scale was modified to include 6, 8 and 12.5 kHz due to insufficient data at 10 kHz in the dataset. Because many of the subjects had some hearing loss at baseline, the TUNE criteria was further modified so that Grades 3 and 4 utilized threshold shift data instead of absolute thresholds. A TUNE Grade 3 was redefined for this study as a ≥35 dB PTA threshold shift from the baseline to the post-treatment audiogram, and similarly Grade 4 was redefined as a ≥50 dB PTA threshold shift.
(§2) Changes in hearing, defined by TUNE criteria, were analyzed using categorical incidence (per ear) data. The incidence and severity distribution of a clinically meaningful hearing change, per ear, relative to statin use was analyzed using chi-square analyses (SAS PROC FREQ procedure). […] A logistic regression analysis (SAS PROC LOGISTIC procedure) with calculation of odds ratios and 95% confidence intervals was performed to identify associations between TUNE-defined changes in hearing and statin use after adjustment for significant covariates.

Series [4] has the same test system.
Text: as §1
as §2, with “The primary outcome measure was based on changes” for “Changes”, “hearing as” for “hearing,”, “CTCAEv5.0 scale criteria (see Table 4) and” for “TUNE criteria,”, “CTCAE-defined” for “TUNE-defined”
The source holds these as a separate data set.

The test system of the next series is patients with HNSCC. Put plainly: 3-year overall and disease-free survival (Kaplan-Meier, log-rank). It counts as in vivo, human. Conditions: URMC data n=175; log-rank (Mantel-Cox). Here is the method:
Overall survival and disease-free survival were calculated as Kaplan-Meier curves using Prism v8 software on all available data from URMC at up to 3 years post treatment (N=175). Survival curves were compared using the log-rank (Mantel-Cox) test. Cochlear radiation dose data presented in FIG. 6 were analyzed using Pearson R and Spearman R correlation analysis within Prism v8.
Overall survival at 3 years was approximately 80% (FIG. 4). An exact median survival time could not be calculated due to the number of patients censored/lost to follow-up.

Series [5] has as its system spiral ganglion neurons (SGN). Conditions: mouse model of noise-induced hearing loss; cited from earlier work.
The conditions of series [6]: cited from earlier work.
The conditions of series [7]: Schachter et al., 2005; cited from earlier work.
Series [8] concerns cisplatin-induced hearing loss in mice. Conditions: cyclic administration of cisplatin; ABR testing; cited from earlier work.
For series [9], the system named is heme oxygenase-1 (Hmox-1). Conditions: mice; cited from earlier work.
Series [10] concerns cytochrome P(450) enzymes. Conditions: Schachter et al., 2005; cited from earlier work.
Where [11] appears, read: controlled for cumulative cisplatin dose and baseline hearing.
[12] abbreviates: package insert, rate greater than placebo.

Where “and” joins values, the source holds several entries; their conditions need not be identical. Identical values can stand only once. Entries after “also recorded” stand apart in the source; their conditions may differ.

Take `CC(C)c1c(C(=O)Nc2ccccc2)c(-c2ccccc2)c(-c2ccc(F)cc2)n1CC[C@@H](O)C[C@@H](O)CC(=O)[O-].CC(C)c1c(C(=O)Nc2ccccc2)c(-c2ccccc2)c(-c2ccc(F)cc2)n1CC[C@@H](O)C[C@@H](O)CC(=O)[O-].[Ca+2]` [atorvastatin calcium]: in series [1] (human, in vivo), the “incidence of persistent serum transaminase elevations, 10 mg” value is 0.2%; the “incidence of persistent serum transaminase elevations, 20 mg” value was 0.2%; the “incidence of persistent serum transaminase elevations, 40 mg” value is recorded as 0.6%; the “incidence of persistent serum transaminase elevations, 80 mg” value was 2.3%. Besides, in [1] (human, in vivo), the “patients with persistent elevations (>3 times ULN on 2 or more occasions) in serum transaminases” value is reported as 0.7%.

Consider `CC(C)c1c(C(=O)Nc2ccccc2)c(-c2ccccc2)c(-c2ccc(F)cc2)n1CC[C@@H](O)C[C@@H](O)CC(=O)O` [atorvastatin], for which, in series [2] (post-cisplatin therapy), the “hearing status at follow-up: Mild (PTA >20, <40), number of ears” value turned out to be 49 No. Ears; the “hearing status at follow-up: Mild (PTA >20, <40), percent of ears” value is “(50.52) %”; the “hearing status at follow-up: Moderate (PTA ≥40, ≤70), number of ears” value (from here on “hearing status … (PTA ≥40, ≤70), number of ears”) is 21 No. Ears; the “hearing status at follow-up: Moderate (PTA ≥40, ≤70), percent of ears” value is given as “(21.65) %”. In addition, in series [2] (post-cisplatin therapy), the “hearing status at follow-up: Normal (PTA ≤20), number of ears” value (“hearing status … (PTA ≤20), number of ears” below) worked out at 26 No. Ears; the “hearing status at follow-up: Normal (PTA ≤20), percent of ears” value is on record as “(26.80) %”; the “hearing status at follow-up: Profound (PTA ≥95), number of ears” value (“hearing status … (PTA ≥95), number of ears” below) is on record as 3 No. Ears; the “hearing status at follow-up: Profound (PTA ≥95), percent of ears” value is on record as “(3.00) %”. In series [2] (post-cisplatin therapy), the “hearing status at follow-up: Severe (PTA >70, <95), number of ears” value amounted to 1 No. Ears and the “hearing status at follow-up: Severe (PTA >70, <95), percent of ears” value was “(1.03) %”. Moreover, the “less likely to acquire a TUNE-defined cisplatin-induced hearing loss than a non-statin user” value in [3] (setting [11]) is on record as 56%. Moreover, in series [3] (in vivo), the “incidence of TUNE grade 2 or higher change in hearing” value turned out to be 14.4%. In addition, the “incidence of TUNE Grade 1 or higher hearing loss” value in [3] (percent of ears) worked out at 34%. Further, in series [4] (atorvastatin (20 mg) group as worded), the “hearing loss, CTCAEv5.0 Grade ≥2 criteria, retrospective data used for power analysis” value is recorded as approximately 16.7%. For the same compound, the “less likely to acquire a CTCAE-defined cisplatin-induced hearing loss than a non-statin user” value in series [4] (setting [11]) came out at 53%. Further, the “less likely to develop a cisplatin-related hearing loss, once daily atorvastatin vs not on atorvastatin” value in [4] (observational data) came to 45%. Besides, in series [4] (observational data, 95% CI: 0.327-0.942), the “OR for cisplatin-related hearing loss, once daily atorvastatin vs not on atorvastatin” value worked out at 0.55. For the same compound, the “incidence of a CTCAEv5.0-grade hearing loss, patients” value in series [4] (per patient, in at least one ear) was found to be 46%. Besides, in [4] (percentage of ears), the “incidence of CTCAE grade ≥2 hearing change” value worked out at 9.7%. In series [4] (percentage of ears, full cohort), the “incidence of CTCAE Grade 1 or higher hearing loss” value is 31.2% and 31%. Also, in [4] (subgroup, % of ears), the “incidence of CTCAE-defined hearing loss, chemoradiation therapy” value is recorded as 31.2%; the “incidence of CTCAE-defined hearing loss, higher cumulative cisplatin doses (>200 mg/m^2)” value is 31.7%; the “incidence of CTCAE-defined hearing loss, males” value is listed as 30.4%; the “incidence of CTCAE-defined hearing loss, mild hearing loss at baseline” value came out at 26.8%. In series [1] (20 mg once daily, adults, literature, listed as Atorvastatin), the “safety and tolerability of the 20 mg dose” value is listed as “very low incidence of adverse effects”. Moreover, the “Food and Drug Administration pregnancy classification” value in series [1] (human, in vivo) is “Category X”. In series [1] (setting [12]), the “alanine aminotransferase increase leading to treatment discontinuation” value is listed as 0.4%, the “diarrhea leading to treatment discontinuation” value is recorded as 0.5%, the “hepatic enzyme increase leading to treatment discontinuation” value is listed as 0.4% and the “myalgia leading to treatment discontinuation” value is on record as 0.7%. Moreover, the “nausea leading to treatment discontinuation” value in [1] (setting [12]) is 0.4%. Besides, in the series with patients with HNSCC, the “3-year disease-free survival compared with non-statin users” value is given as “no significant differences” and the “3-year overall survival compared with non-statin users” value is “did not have a significant effect on patient survival; also recorded: no significant differences”. Besides, in series [5], the “elongation of SGN processes” value is on record as “promoted the elongation of SGN processes”.

Turning to `CC(C)n1c(/C=C/C(O)CC(O)CC(=O)O)c(-c2ccc(F)cc2)c2ccccc21` (stereo not shown) [fluvastatin], the elimination half-life in [6] (Schachter et al., 2005) is given as 1 h. Moreover, the lipophilicity result in series [7] was “relatively lipophilic”.

In the case of `CC[C@H](C)C(=O)O[C@H]1C[C@@H](C)C=C2C=C[C@H](C)[C@H](CC[C@@H]3C[C@@H](O)CC(=O)O3)[C@H]21` [lovastatin], in series [2] (post-cisplatin therapy), the “hearing status at follow-up: Mild (PTA >20, <40), number of ears” value is 4 No. Ears; the “hearing status at follow-up: Mild (PTA >20, <40), percent of ears” value is “(100.00) %”; the “hearing status … (PTA ≥40, ≤70), number of ears” value worked out at 0 No. Ears; the “hearing status … (PTA ≤20), number of ears” value amounted to 0 No. Ears. Besides, in series [2] (post-cisplatin therapy), the “hearing status … (PTA ≥95), number of ears” value was 0 No. Ears and the “hearing status at follow-up: Severe (PTA >70, <95), number of ears” value is recorded as 0 No. Ears. In series [8], the “effect on cisplatin-induced hearing loss / ototoxicity in mice” value is on record as “reduces cisplatin-induced hearing loss; also recorded: reduced cisplatin ototoxicity”. Moreover, in series [9], the “Hmox-1 mRNA” value is “induced Hmox-1 mRNA”. Moreover, the “elongation of SGN processes” value in [5] is listed as “promoted the elongation of SGN processes”. Further, the lipophilicity entry in series [7] is given as “relatively lipophilic”.

For `O=C(O)C[C@H](O)C[C@H](O)/C=C/c1c(C2CC2)nc2ccccc2c1-c1ccc(F)cc1` [pitavastatin], the “metabolism by the cytochrome P(450) system” value in [10] is listed as “limited metabolism”. Also, the “change of hearing status over cisplatin therapy, in words” value in [2] (n=2 subjects) was “started and ended therapy with a bilateral mild hearing loss”. For the same compound, in series [2] (post-cisplatin therapy), the “hearing status at follow-up: Mild (PTA >20, <40), number of ears” value is listed as 4 No. Ears; the “hearing status at follow-up: Mild (PTA >20, <40), percent of ears” value is listed as “(100.00) %”; the “hearing status … (PTA ≥40, ≤70), number of ears” value was found to be 0 No. Ears; the “hearing status … (PTA ≤20), number of ears” value is listed as 0 No. Ears. In [2] (post-cisplatin therapy), the “hearing status … (PTA ≥95), number of ears” value stood at 0 No. Ears and the “hearing status at follow-up: Severe (PTA >70, <95), number of ears” value is given as 0 No. Ears. Besides, the lipophilicity result in [7] is “relatively lipophilic”.

`CC[C@H](C)C(=O)O[C@H]1C[C@H](O)C=C2C=C[C@H](C)[C@H](CC[C@@H](O)C[C@@H](O)CC(=O)O)[C@H]21` [pravastatin]: the “metabolism by the cytochrome P(450) system” value in [10] is “not significantly metabolized”. In series [6] (compared with lipophilic agents, Schachter et al., 2005), the hepatoselectivity result is reported as “greater hepatoselectivity”. Moreover, in [2] (post-cisplatin therapy), the “hearing status at follow-up: Mild (PTA >20, <40), number of ears” value worked out at 8 No. Ears; the “hearing status at follow-up: Mild (PTA >20, <40), percent of ears” value is given as “(33.33) %”; the “hearing status … (PTA ≥40, ≤70), number of ears” value is reported as 6 No. Ears; the “hearing status at follow-up: Moderate (PTA ≥40, ≤70), percent of ears” value is “(25.00) %”. In [2] (post-cisplatin therapy), the “hearing status … (PTA ≤20), number of ears” value was determined as 9 No. Ears; the “hearing status at follow-up: Normal (PTA ≤20), percent of ears” value is listed as “(37.50) %”; the “hearing status … (PTA ≥95), number of ears” value amounted to 0 No. Ears; the “hearing status at follow-up: Severe (PTA >70, <95), number of ears” value is 1 No. Ears. In addition, in series [2] (post-cisplatin therapy), the “hearing status at follow-up: Severe (PTA >70, <95), percent of ears” value is “(4.17) %”. Further, the lipophilicity result in [7] is recorded as “relatively hydrophilic”.

For `CCC(C)(C)C(=O)O[C@H]1C[C@@H](C)C=C2C=C[C@H](C)[C@H](CC[C@@H]3C[C@@H](O)CC(=O)O3)[C@H]21` [simvastatin], the half-life – broadly, the time needed for the level to fall by half in the phase considered – in series [6] (Sirtori et al., 2014) is 12 h.

The record behind these values is patent US20240293361A1, “Use of Statins to Treat or Prevent Drug-Induced Hearing Loss” (The United States of America, as represented by the …, priority 2020, published 2024).
